Assay results from patent publication US20070014757A1, “Compositions and complexes containing a macromolecular compound as potential anti-inflammatory agents” (COUNCIL OF SCIENTIFIC AND INDUSTRIAL RESEARCH, priority 2002, published 2007).
Where two headings read alike, the source gives them in different places.

Columns and labels:
[1] = test system: cotton pellet granuloma in rats; experiment: Cotton pellet test in rats (sub-acute model); type: in vivo; settings: granuloma dry weight vs control, dosed once a day, day 1 to 7; I 1.4 mg/kg, D 12 mg/kg, DI 1.4 mg/kg I + 12 mg/kg D
Protocol: Cotton pellet test in rats: Four autoclaved pellets of cotton weighing 10 mg±0.5 mg were implanted on the previously shaved groin and axilla (two cotton pellet in each) region of rats aseptically. The test formulations (D,I and DI) were fed once a day from 1 to 7 of the experiment. On the day 8 th, the rats were etherized by an overdose of ether and the pellets surrounded by granuloma tissue wre dissected out carefully and dried in a hot oven at 60° C. till a constant weight was obtained. Ulcers were not found in any of the case. After dissection various organs were removed, washed, dried and weighed and histopathology was carried out. No abnormalities were found after conducting the histopathology of liver, lung, kidney and spleen.
The subcutaneous implantation of cotton pellets provides inflammatory exudates that are easily processed. Implantation of cotton pellet triggers the series of cascade inflammatory reaction, leads to the migration of mediators of the inflammation in the zone of implantation.

[2] = Comparative behavior of dendrimer and indomethacin at different pH (solubility); type: physicochemical
Protocol: To study the comparative behavior of dendrimer and indometacin at different pH two possibilities were tried. […] The pH of the aqueous solutions of dendrimer was adjusted using 0.1 N HCl and 1M NaOH. […] To the aqueous solutions of various pH (pH-2, 4 7, 8 and 10), dendrimer was added at different percentage. (0.075, 0.15, 0.2). pH was measured in each case. […] The amines of dendrimer will show maximum ionization at acidic pH and minimum ionization at basic pH. […] (initial pH).

[3] = Phase solubility study of indomethacin in aqueous dendrimer solutions; type: physicochemical; settings: indomethacin with PAMAM (fourth generation), 25° C.
Protocol: Solubility studies were carried out as described by Higuchi and Connors with minor modifications.
Solubility phase diagram depicts the AN type of curve (FIG. 2), which represent a decreasing dependence on the ligand added at higher concentration. This type is comparatively least frequently encountered system, and its occurrence may be explained on the basis of self-association of the ligand at high concentration, which is in contrast to the curve reported by Emanuele et al, for dendrimer using ibuprofen. The negative slope in the curve may be due to the aggregation of dendrimer with the increasing concentration.

[4] = Hematological parameters in arthritic rats (blood cell counter)
Protocol: (§1) Hematological parameters were determined by blood cell counter (Medonic CA 620).

[5] = test system: Adjuvant-induced arthritis in rats; experiment: Adjuvant-induced arthritis in rats (chronic model); type: in vivo; settings: foot swelling, daily dosing I 1 mg/kg, D 9 mg/kg, DI 1 mg/kg I + 9 mg/kg D
Description: Rats were sacrificed. After dissection various organs were removed, washed, dried and weighed. Ulcers were not observed in any of the cases.
The body weight and feed intake of rats were monitored regularly. Weight gain has also been used as a parameter for assessing drug effectiveness.

[6] = rat, in vivo
Protocol: as §1

COc1ccc2c(c1)c(CC(=O)O)c(C)n2C(=O)c1ccc(Cl)cc1 [I, Indomethacin]
Mean Percentage Inhibition ± SE [1]: 22 ± 1.2%
solubility of indomethacin on addition of dendrimer (in words) ([2]; case-A: filtered saturated solution of indomethacin): found to be decrease
solubility of indomethacin on addition of dendrimer (in words) ([2]; case-B: suspension with un-dissolved drug, dendrimer 0.075%, 0.15%, 0.2%): further increased
type of phase solubility profile [3]: AN type of solubility profile
Haematocrit [4]: 30.3%
Hemoglobin concentration [4]: 11.6 gm/dl
Large platelets [4]: 8.05%
Mean Platelet Cell Volume [4]: 6.55 um^3
Mean cell hemoglobin [4]: 19.9 pg
Mean cell hemoglobin concentration [4]: 38.2 g/dL
Mean cell volume for red blood cell [4]: 52 um^3
Packed platelet volume [4]: 0.51%
Platelet distribution width [4]: 8.63 um^3
Platelets [4]: 778 10^3\mm^3
Red blood cell [4]: 5.87 10^6/mm^3
Red cell distribution width [4]: 18.9%
Red cell distribution width absolute [4]: 44.1 um^3
White blood cells [4]: 8.85 10^3/mm^3
Mean Percentage Inhibition ± SE ([5]; +1 day): 17 ± 0.9%
Mean Percentage Inhibition ± SE ([5]; +3 day): 18 ± 0.7%
Mean Percentage Inhibition ± SE ([5]; +5 day): 9 ± 0.6%
Mean Percentage Inhibition ± SE ([5]; +7 day): 9 ± 0.8%
Mean Percentage Inhibition ± SE ([5]; +10 day): 8 ± 0.6%
Mean Percentage Inhibition ± SE ([5]; +12 day): 10 ± 0.9%
Mean Percentage Inhibition ± SE ([5]; +14 day): 11 ± 0.9%

NH2 terminated PAMAM dendrimer (EDA core) generation 4
Haematocrit [6]: 37.3%
Hemoglobin concentration [6]: 11.3 gm/dl
Large platelets [6]: 7.75%
Mean Platelet Cell Volume [6]: 6.5 um^3
Mean cell hemoglobin [6]: 18.9 pg
Mean cell hemoglobin concentration [6]: 38 g/dL
Mean cell volume for red blood cell [6]: 49.7 um^3
Packed platelet volume [6]: 0.45%
Platelet distribution width [6]: 8.6 um^3
Platelets [6]: 700 10^3\mm^3
Red blood cell [6]: 6 10^6/mm^3
Red cell distribution width [6]: 14.9%
Red cell distribution width absolute [6]: 36.3 um^3
White blood cells [6]: 8.78 10^3/mm^3
